Assay results from patent US7772230B2, “Chroman compound, processes for its preparation, and its pharmaceutical use” (China Pharmaceutical University, priority 2006, dated 2010).

What was measured:
[1] = target: T1, slowly delayed rectifier potassium channel current (IKs) (Cavia porcellus, UniProt O70344); experiment: whole cell patch clamp on isolated Guinea pig myocardial cells, IKs; format: cell-based; details: Guinea pig ventricular myocytes, current recorded 10 min after administration, 25-30° C.
T1 construct: the Guinea pig myocardial cells are separated with enzymolysis; endogenous in cells; host or cells: freshly isolated guinea pig ventricular myocytes
T1 sequence (O70344 1-671): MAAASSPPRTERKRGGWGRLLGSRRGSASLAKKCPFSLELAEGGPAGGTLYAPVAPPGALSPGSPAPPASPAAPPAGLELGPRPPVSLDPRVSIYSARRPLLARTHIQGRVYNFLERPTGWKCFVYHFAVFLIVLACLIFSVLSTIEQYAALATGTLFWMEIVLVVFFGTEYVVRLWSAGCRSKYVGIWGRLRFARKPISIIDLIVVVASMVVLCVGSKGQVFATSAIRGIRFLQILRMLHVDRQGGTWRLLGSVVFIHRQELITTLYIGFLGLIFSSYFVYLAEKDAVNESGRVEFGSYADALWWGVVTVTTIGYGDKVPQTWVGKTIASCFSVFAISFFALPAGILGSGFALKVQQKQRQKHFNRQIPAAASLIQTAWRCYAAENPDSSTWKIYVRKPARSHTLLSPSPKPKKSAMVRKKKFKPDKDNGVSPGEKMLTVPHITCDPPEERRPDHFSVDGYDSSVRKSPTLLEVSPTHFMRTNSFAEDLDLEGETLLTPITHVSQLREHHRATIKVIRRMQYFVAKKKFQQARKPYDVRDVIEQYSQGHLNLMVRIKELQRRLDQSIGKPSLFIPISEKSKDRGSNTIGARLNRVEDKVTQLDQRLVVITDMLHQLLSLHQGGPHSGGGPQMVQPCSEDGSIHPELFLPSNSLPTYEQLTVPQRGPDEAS
T1 sequence (P41686 1-245 partner): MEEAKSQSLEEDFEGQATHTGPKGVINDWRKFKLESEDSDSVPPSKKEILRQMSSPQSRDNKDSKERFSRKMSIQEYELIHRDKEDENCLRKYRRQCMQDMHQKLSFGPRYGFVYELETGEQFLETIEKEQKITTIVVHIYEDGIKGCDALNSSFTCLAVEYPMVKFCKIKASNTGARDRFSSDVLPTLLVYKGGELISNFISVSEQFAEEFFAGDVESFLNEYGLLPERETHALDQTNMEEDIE
Method: (§1) Experimental title: using vitro pachynsis myocardial cells of Guinea pig, the activity is determined by the whole cell membrane Patch clamp technology.
(§2) experimental mechanism: the Guinea pig myocardial cells are separated with enzymolysis, and the rapid activation component and the slowly activation component of the delayed commutating current in the cardiac muscle cells are recorded by whole cell membrane Patch clamp. Each compound is added to the perfuse liquid for measuring current after dissolved at least 10 min. The collected data is analyzed in pulse-fit, the IC50 value for IKr and IKs of each compound is calculated.
(§3) animals: Guinea pigs, male, weight 300-400 g.
(§4) solution: calcium free Tyrode's solution
(§5) pole inner solution (mmol/L): KCl 140, MgCl2 1.0, K2-ATP 4.0, EGTA 10, HEPES 5.0, pH=7.2
(§6) Experimental apparatus: Patch clamp magnifier (EPC-10, Germany), inverted microscope (TE-2000U, Nikon, Japan), microelectrode puller (PIP5, Germany), micro-manipulator (PCS-5000, Burleigh, USA).
(§7) Then, the hearts are taken off, their ventricle are cut to smash and incubated in fresh enzyme solution at 37° C., the solution is gently stirred for 5-10 min, pouring off the supernatant fluid, diluted with Tyrode's solution containing CaCl2 1 mmol/L, that is for the first cell stored liquor; with the same operation to obtain the second and the third cell storages. […] The cells are laid for 2 h before use.
(§8) the cell liquor is put into the cell pool, after the cells adhering to the wall, they are perfused with outer liquor of the cells at the rate of 2 ml/min, cells that having calcium resistance and clear transverse striations are to be selected, the poles are moved to the cell surface by tridimensional manipulator. The high resistance block are formed between the pole top and the cell surface by under pressure, and more over using reduced pressure to broking cell membrane, the pole inner liquor can be connected to the cell inner liquor so as to form the whole cell state. After the compensation to the capacitance and series impedance compensation the voltage tongs are recorded. The signal is led by Ag/AgCl pole and magnified by the Patch clamp magnifier, the computer dispenses presetting stimulate pulse by procedure and add to cells, and the electrical signal generated from cells is translated by transducer, and stored in computer. All of the stimulate signal control, electric current, data sampling and analyses are carried out by pulse V8.60. Azimilide is used as positive drugs in the research. Each test compound is dissolved in anhydrous ethanol, diluted to the same concentration by water, and added to outer cell liquor, the top concentration of ethanol is 0.1%.
(§9) Stimulate parameter: the record of IKr and IKS: the back value of the either current is recorded. Using extra-cellular fluid containing 0.1 mmol/L CdCl2 for perfusion, sustaining the voltage at −50 mV, depolarized to 60 mV, keeping for 500 ms, and sustaining the voltage at −50 mV, keeping for 1000 ms, recording IKr; and then binding the voltage at −50 mV for 1000 ms, recording IKs.

[2] = target: T2, rapidly delayed rectifier potassium channel current (IKr) (Cavia porcellus, UniProt O08703); experiment: whole cell patch clamp on isolated Guinea pig myocardial cells, IKr; format: cell-based; details: Guinea pig ventricular myocytes, current recorded 10 min after administration, 25-30° C.
T2 construct: the Guinea pig myocardial cells are separated with enzymolysis; endogenous in cells; host or cells: freshly isolated guinea pig ventricular myocytes
T2 sequence (O08703 1-1294): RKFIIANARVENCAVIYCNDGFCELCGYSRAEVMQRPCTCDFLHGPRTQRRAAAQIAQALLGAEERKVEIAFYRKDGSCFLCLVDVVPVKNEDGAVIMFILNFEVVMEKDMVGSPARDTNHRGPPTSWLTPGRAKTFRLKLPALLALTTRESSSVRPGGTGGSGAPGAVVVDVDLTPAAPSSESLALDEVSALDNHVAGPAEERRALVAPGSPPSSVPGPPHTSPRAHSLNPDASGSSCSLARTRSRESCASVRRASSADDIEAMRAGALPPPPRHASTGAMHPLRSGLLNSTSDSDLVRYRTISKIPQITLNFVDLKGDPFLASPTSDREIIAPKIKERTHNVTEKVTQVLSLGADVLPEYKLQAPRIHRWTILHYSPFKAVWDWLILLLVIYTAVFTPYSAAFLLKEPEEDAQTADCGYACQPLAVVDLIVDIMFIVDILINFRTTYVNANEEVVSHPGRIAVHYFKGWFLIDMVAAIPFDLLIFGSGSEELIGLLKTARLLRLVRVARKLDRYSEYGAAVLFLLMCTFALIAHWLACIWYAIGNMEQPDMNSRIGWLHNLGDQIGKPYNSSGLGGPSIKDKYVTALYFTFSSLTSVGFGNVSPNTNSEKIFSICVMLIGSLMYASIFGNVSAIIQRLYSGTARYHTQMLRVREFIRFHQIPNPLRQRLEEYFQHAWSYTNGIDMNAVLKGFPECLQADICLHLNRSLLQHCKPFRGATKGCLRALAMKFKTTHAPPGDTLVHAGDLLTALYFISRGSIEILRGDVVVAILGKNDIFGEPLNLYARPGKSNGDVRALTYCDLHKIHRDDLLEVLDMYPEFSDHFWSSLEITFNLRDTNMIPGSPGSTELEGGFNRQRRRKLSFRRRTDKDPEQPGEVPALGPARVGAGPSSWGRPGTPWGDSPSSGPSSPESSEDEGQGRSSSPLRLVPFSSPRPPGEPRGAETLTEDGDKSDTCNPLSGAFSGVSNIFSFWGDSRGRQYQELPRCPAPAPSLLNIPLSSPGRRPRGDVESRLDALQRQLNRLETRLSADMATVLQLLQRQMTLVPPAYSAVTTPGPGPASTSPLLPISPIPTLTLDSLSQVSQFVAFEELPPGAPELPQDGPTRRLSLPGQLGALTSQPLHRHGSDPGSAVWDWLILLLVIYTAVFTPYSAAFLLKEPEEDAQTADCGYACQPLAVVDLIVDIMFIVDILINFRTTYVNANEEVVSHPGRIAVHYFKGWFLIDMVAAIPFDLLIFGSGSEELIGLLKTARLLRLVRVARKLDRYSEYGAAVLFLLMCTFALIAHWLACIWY
Method: as §1, §2, §3, §4, §5, §6, §7, §8, §9

| Compound | IC50 [1] [nM] | IC50 [2] [nM] | melting point [°C] |
| --- | --- | --- | --- |
| CCCOc1ccc2c(c1)/C(=N/N1CC(=O)N(CCCCN3CCN(C)CC3)C1=O)CCO2.O=C(O)/C=C/C(=O)O [Ib example 3, 1-[4-(2,3-dihydro-6-propoxy-)benzopyran]imino-3-[4-(methyl-1-piperazine)butyl]-2,4-imidazole dione difumarate] | 1280 | 11800 | 218 to 220 |
| CCCCOc1ccc2c(c1)/C(=N/N1CC(=O)N(CCCCN3CCN(C)CC3)C1=O)CCO2.O=C(O)/C=C/C(=O)O [Ib example 4, 1-[4-(2,3-dihydro-6-butoxy)benzopyran]imino-3-[4-(methyl-1-piperazine)butyl]-2,4-imidazole dione difumarate] | 22 | 180 | 208 to 210 |
